The subject of data set [1] is platelets (arachidonic acid-induced aggregation). The data set can be described thus: Aspirin resistance by arachidonic acid-induced aggregation, LTA (Example 1). It is filed as in vivo. The note with it: 1.0 mM arachidonic acid; 1/70 patients; aspirin 81-325 mg qd. An excerpt: J Am Coll Cardiol 1998 89:783).
Data set [2] shares this test system. The note with it: Gum et al. study; ADP and 1.6 mM arachidonic acid; cited from earlier work.
The subject of data set [3] is platelets (ADP-induced aggregation). Briefly: ADP-induced platelet aggregation by light transmittance aggregometry after coronary stenting (Example 2). It is filed as in vivo, patients. On the procedure:
Patients were randomly assigned to one of four treatment regimens by a computer generated assignment that was chosen from a sealed envelope by the study personnel: […] […] Unfractionated heparin was administered according to the ESPRIT dosing regimen (60 U/kg) as a bolus to all patients in the catheterization laboratory immediately prior to stenting. […] The blood-citrate tubes were centrifuged at 120 g for 5 minutes to recover platelet rich plasma (PRP) and further centrifuged at 850 g for 10 minutes to recover platelet poor plasma (PPP). The platelet count was determined in the PRP sample and adjusted to 3.0×10^8/ml with homologous platelet poor plasma. The PRP and PPP were stored at room temperature to be used within two hours. Platelet aggregation was assessed as described previously. […] Aggregation was expressed as the maximum percent change in light transmittance from baseline, using PPP as a reference.

Data set [4] deals with activated GP IIb/IIIa receptors. The data set can be described thus: Whole blood flow cytometry, stimulated active GP IIb/IIIa expression (Example 2). It is filed as in vivo, patients. As to conditions: 18-24 hours post-stenting, 5 μM ADP stimulated. As for the experimental part: (recognizes activated GP IIb/IIIa receptors), R-Phycoerythrin (R-PE)-conjugated CD41a (recognizes total GP IIb/IIIa receptors), and CY-Chrome™ conjugated CD62P (recognizes p-selectin). […] The blood-citrate mixture was stimulated with 5 μM ADP for 2 minutes.
The definition of an infarct was CK-MB>3× upper limits normal (ULN) in at least 2 samples and a large infarct was defined as CK-MB>5×ULN in at least 2 samples.10,13 Bleeding was quantified according to the TIMI criteria.16 In brief, major bleeding was defined as clinically overt bleeding accompanied by a fall in hemoglobin of […] or a fall in hematocrit of 9 to <15%.

In data set [5] the test system is myocardial necrosis markers (troponin I, CKMB, myoglobin). Briefly: Myocardial necrosis markers and infarction after elective stenting (Example 2). The format is in vivo, patients. The note with it: for criteria met for a myocardial infarction: CK-MB>3× ULN in at least 2 samples; for large infarcts: CK-MB>5×ULN in at least 2 samples. As for the experimental part:
Patients were randomly assigned to one of four treatment regimens by a computer generated assignment that was chosen from a sealed envelope by the study personnel: […] […] Unfractionated heparin was administered according to the ESPRIT dosing regimen (60 U/kg) as a bolus to all patients in the catheterization laboratory immediately prior to stenting. Cardiac markers were measured at the same times as the platelet assays. The peak levels of troponin I, creatinine kinase MB (CKMB), and myoglobin were determined using the Triage® Cardiac Panel with a Triage® Meter (Biosite Inc., San Diego, Calif.). This method is based on a fluorescence immunoassay for the quantitative determination of these cardiac markers.

Data set [6] has as its system p-selectin. As to conditions: stimulated; 18-24 hours post-stenting; 300 mg clopidogrel alone.
Procedure: The surface expression of platelet receptors was determined by whole blood flow cytometry using three-color analysis method (Immunocytometry Systems, Cytometry Source Book, Becton Dickinson) with the following monoclonal antibodies: FITCconjugated PAC-1. (recognizes activated GP IIb/IIIa receptors), R-Phycoerythrin (R-PE)-conjugated CD41a (recognizes total GP IIb/IIIa receptors), and CY-Chrome™ conjugated CD62P (recognizes p-selectin). All three antibodies were purchased from BD Biosciences, San Diego, Calif. The blood-citrate mixture was stimulated with 5 μM ADP for 2 minutes. Saturating concentrations of respective antibodies were then added and the tubes were incubated at room temperature for 20 minutes in the dark. […] The labeled samples were analyzed by a Becton Dickinson FACScan flow cytometer set up to measure fluorescence light scatter. The instrument was calibrated with fluorescence beads for the three-color flow cytometer setup (CaliBRITE™3, BD Biosciences). […] The data were collected in list mode and then analyzed using CELL Quest Software (BD BioSciences). P-selectin was expressed as percent positive cells (i.e. the ratio of CD62P (CY-Chrome™) verses CD41a (R-PE) positive cells) as previously described. Activated GP IIb/IIIa was expressed as log mean fluorescence intensity.
For data set [7] the following is noted: Group A, 300 mg clopidogrel; hematoma.
Procedure: Relative platelet inhibition was defined for purposes of this study as follows: (baseline aggregation minus posttreatment aggregation)/baseline aggregation×100%.14 Mean platelet reactivity was calculated as the average platelet aggregation recorded at 3, 8 and 18-24 hours poststenting. […] The definition of an infarct was CK-MB>3× upper limits normal (ULN) in at least 2 samples and a large infarct was defined as CK-MB>5×ULN in at least 2 samples.10,13 Bleeding was quantified according to the TIMI criteria.16 In brief, major bleeding was defined as clinically overt bleeding accompanied by a fall in hemoglobin of 3.0-5.0 g/dl or a fall in hematocrit of 9 to <15%. Major bleeding occurred when the hemoglobin decreased >5 g/dl or the hematocrit ≧15%.
Data set [8] relates to platelets (ADP-induced aggregation). The note with it: resistance = >75th percentile of group without SAT, 75 mg maintenance dose.
Data set [9] has the same test system. The note with it: cited from earlier work.

Read-outs that look alike come from different tables or passages of the source. Where a SMILES comes first, the peptide text is derived from it. Bridges are numbered along the chain shown (N, C = ends). [ ]: non-standard residue; d: D form. hArg = N=C(N)NCCCC[C@H](N)C(=O)O; Mpa = O=C(O)CCS

The text below walks through data of patent US8440420B2, “Assessment of cardiac health and thrombotic risk in a patient” (priority 2005, dated 2013).

As to `CC(=O)Oc1ccccc1C(=O)O` [aspirin], the “patients meeting the criteria for aspirin resistance” value in data set [1] was 1.5%; in [2] it was 5.5%.
As for `COC(=O)[C@H](c1ccccc1Cl)N1CCc2sccc2C1` [clopidogrel], the “time of peak inhibitory effect” value is 18 to 24 h in [3] (5 μM ADP, 300 mg clopidogrel loading dose); 8 h in data set [3] (5 μM ADP, 600 mg clopidogrel loading dose); 8 h in [3] (20 μM ADP, 300 mg clopidogrel loading dose); 8 h in [3] (20 μM ADP, 600 mg clopidogrel loading dose). In addition, the “platelet inhibition, 600 mg vs 300 mg loading dose” value in data set [3] (5 μM ADP, 600 mg loading dose, no eptifibatide, first 24 hours after stenting) is “greater platelet inhibition”. For the same molecule, the “mean platelet reactivity vs 600 mg clopidogrel alone” value in data set [3] (5 μM ADP, average of 3, 8 and 18-24 hours post-stenting, 300 mg clopidogrel alone) was “higher mean platelet reactivity”. The “inhibition of stimulated expression of active GP IIb/IIIa” value in [4] (300 mg clopidogrel loading dose (Groups A, C)) was determined as 50±20%; in data set [4] (600 mg clopidogrel loading dose (Groups B, D)), 63±7%. For the same molecule, the “ST-elevation myocardial infarction in-hospital following a subacute thrombosis” value in [5] (Group A, 300 mg clopidogrel) is “one”. In addition, the “criteria met for a myocardial infarction” value in [5] (Group A, 300 mg clopidogrel) is 3 patients; in data set [5] (Group B, 600 mg clopidogrel), 1 patients. The large infarcts was found to be 2 in data set [5] (Group A, 300 mg clopidogrel) and 1 in data set [5] (Group B, 600 mg clopidogrel). The “effect in p-selectin expression” value in [6] was “least effect”. For the same molecule, in [7], the minor bleeding result was “one”. Besides, the results for the “estimated incidence of clopidogrel resistance” value in data set [8] (5 μM ADP-induced aggregation) and in [8] (20 μM ADP-induced aggregation) were 65% and 60%, respectively. Further, the “inhibition of baseline aggregation” value in data set [9] (300 mg loading dose, 5 and 20 μM ADP, 24 hours after administration) is recorded as < 40%.
Turning to `N=C(N)NCCCC[C@@H]1NC(=O)CCSSC[C@@H](C(N)=O)NC(=O)[C@@H]2CCCN2C(=O)[C@H](Cc2c[nH]c3ccccc23)NC(=O)[C@H](CC(=O)O)NC(=O)CNC1=O` [eptifibatide] ([Mpa][hArg]GDWPC-NH2; disulfide 1-7), the mean platelet reactivity entry in data set [3] (5 μM ADP, average of 3, 8 and 18-24 hours post-stenting, eptifibatide use) is recorded as “lowest mean platelet reactivity”. Moreover, the large infarcts result in data set [5] (either group that received eptifibatide (Groups C, D)) is on record as “no large infarcts”. Also, the “CKMB release (>1-3×ULN), overall” value in [5] (groups treated with eptifibatide vs clopidogrel alone) was “lowest”. In addition, the “inhibition (of aggregation)” value in data set [9] (other studies) was > 80%.
